Experimental data reported in patent publication US10716795B2, “Steroid analogues for neuroprotection” (Emory University, priority 2008, dated 2020).
≈ marks a conversion by molar mass, not a printed value. Where a name gives a salt, the structure may show the parent alone.

Tests used:
[1] = tested on: Primary cortical cells; assay: MTT assay of glutamate toxicity in primary cortical cells; format: cell-based; conditions: for reduction in cell death at 5 μM: 5 μM compound, glutamate 0.5 μM 24 h; for reduction in cell death best concentration: 24 h pre-treatment, then glutamate 0.5 μM 24 h, at the best concentration; for best concentration (for reduction in cell death): tested 0.1-80 μM, glutamate 0.5 μM; for cell survival / reduction in cell death (in words): glutamate toxicity, cortical neurons
Experimental: Primary cortical cells were seeded in multi-well plates and cultured for 8 days. […] Cells were next exposed to glutamate (0.5 μM) for the following 24 h. Cytotoxicity was assessed by the MTT [3-(4,5-dimethylthiazol-2-yl)-2,5-diphenyltetrazolium bromide] assay, which is based on the ability of a mitochondrial dehydrogenase enzyme from viable cells to cleave the tetrazolium rings of the pale yellow MTT. This reaction forms dark blue formazan crystals which are largely impermeable to cell membranes, thus resulting in their accumulation within healthy cells. Solubilization of the cells results in the liberation of the crystals, which are then also solubilized. The number of surviving cells is directly proportional to the level of the formazan product created.

[2] = pharmacokinetic analysis in non-injury whole animal rat study (serum levels); conditions: IV 10 mg/kg, serum over 12 h
Experimental: Select compounds were submitted for pharmacokinetic analysis in a non-injury whole animal rat study.
The compounds were intravenously (IV) dosed at 10 mg/kg and serum samples were taken at several time points over the course of 12 h. Serum concentration levels were determined for the analogues, as well as for their respective parent compound.

[3] = tested on: cerebral edema; assay: cerebral edema assay in whole animal model of TBI (cortical contusion); format: in vivo, rat; conditions: for efficacy in the cerebral edema assay (edema reduction) relative to PROG or group / mean % difference edema (injured vs non-injured tissue): male rats, cortical contusion; for efficacy in the cerebral edema assay (edema reduction) relative to PROG or group: two 8 mg/kg doses at 1 h and 6 h; for mean % difference edema (injured vs non-injured tissue): two 8 mg/kg doses at 1 h and 6 h post-surgery, brain tissue 24 hours post brain injury; for edema compared to subjects treated with vehicle: rat brain tissue 24 hours post brain injury
Experimental: Anesthetized male rats were first subjected to cortical contusion and were then given two 8 mg/kg doses of the test compound, the first at 1 h post-surgery and the second at 6 h. The animals were then sacrificed and tissue samples were taken from both injured and non-injured sections of the brain. Wet and dry weights were collected for each sample and cerebral edema (% water content) was determined as the difference in wet and dry weights divided by the wet weight. A “% mean difference” value could then be calculated based on the relative edema difference between injured and non-injured tissue samples for a given animal. […] The “vehicle” group were subjected to cortical injury but received only the drug carrier (22.5% 2-hydroxypropyl-β-cyclodextrine in water). All experimental treatments given by injection were made in stock solutions using 2-Hydroxypropyl-b-cyclodextrin (HBC; 45% w/v solution in H2O) as the solvent. These experimental solutions were then diluted 1:1 with sterile water for a final concentration of HBC of 22.5%.

[4] = physchem
Experimental: Several compounds were screened for solubility (FIG. 2). Solubility testing was done in phosphate buffered saline, which is considered to be a good model system for physiological conditions. Compounds were added in small portions at room temperature with stirring until a visible endpoint of saturation was reached.

[5] = PROG IP at 4 mg/kg, male rats; cited from earlier work
[6] = cited from earlier work
[7] = tested on: glutathione reductase; assay: glutathione reductase activity following TBI; format: in vivo; conditions: relative to progesterone and allopregnanolone
[8] = tested on: PR-mediated gene transcription; assay: PR-mediated gene transcription; format: cell-based
[9] = aqueous buffer, thermodynamic from solid

CC(=O)[C@H]1CC[C@H]2[C@@H]3CC[C@H]4C[C@H](O)CC[C@]4(C)[C@H]3CC[C@]12C [ALLO, allopregnanolone, reference compound]
reduction in cell death at 5 μM [1]: −3% | reduction in cell death best concentration [1]: 40% | best concentration (for reduction in cell death) [1]: 80 µM

CC(=O)[C@H]1CCC2C3CCC4=C[C@@H](OC(=O)[C@@H](N)C(C)C)CC[C@]4(C)C3CC[C@@]21C (stereo partly drawn) [Compound P1-31, 3β-L-Valine-progesterone-HC]
in vivo stability of amino acid side chain / conversion to parent compound [2]: cleaved almost immediately | efficacy in the cerebral edema assay (edema reduction) relative to PROG or group [3]: equivalent efficacy to progesterone | mean % difference edema (injured vs non-injured tissue) [3]: 2.2% | edema compared to subjects treated with vehicle [3]: decrease in edema | solubility [4, 9]: 3850 µg/mL (≈ 9.26 mM)

CC(=O)[C@H]1CC[C@H]2[C@@H]3CCC4=C[C@@H](OC(=O)[C@@H]5CCCN5)CC[C@]4(C)[C@H]3CC[C@]12C [Compound P1-33, 3β-L-Proline-progesterone-HCl]
in vivo stability of amino acid side chain / conversion to parent compound [2]: cleaved almost immediately

CC(C)[C@H](N)C(=O)O[C@@H](C)[C@H]1CCC2C3CCC4=CC(=O)CC[C@]4(C)C3CC[C@@]21C (stereo partly drawn) [Compound P1-57, 20-S-L-Valine-progesterone HCl Salt]
reduction in cell death at 5 μM [1]: 23% | reduction in cell death best concentration [1]: 30% | cell survival / reduction in cell death (in words) [1]: significant reductions in cell death | best concentration (for reduction in cell death) [1]: 10 µM

CC(=O)[C@H]1CCC2C3CCC4=C/C(=N/OC(=O)[C@@H](N)Cc5c[nH]c6ccccc56)CC[C@]4(C)C3CC[C@@]21C (stereo partly drawn) [Compound P1-79, O-L-Tryptophan-C3-oxime-progesterone HCl Salt]
mean % difference edema (injured vs non-injured tissue) [3]: 1.9% | edema compared to subjects treated with vehicle [3]: decrease in edema

CC(=O)[C@H]1CCC2C3CC[C@H]4C[C@H](OC(=O)[C@@H](N)C(C)C)CC[C@]4(C)C3CC[C@@]21C (stereo partly drawn) [Compound P1-131, 3α-L-Valine-5α-pregnan-20-one HCl Salt]
in vivo stability of amino acid side chain / conversion to parent compound [2]: stable for a prolonged period of time and only gradually converted to its parent, ALLO | efficacy in the cerebral edema assay (edema reduction) relative to PROG or group [3]: greatest edema reduction among the ALLO isomer group

CC(=O)[C@H]1CCC2C3CC[C@@H]4C[C@H](OC(=O)[C@@H](N)C(C)C)CC[C@]4(C)C3CC[C@@]21C (stereo partly drawn) [Compound P1-133, 3α-L-Valine-5-pregnane-20-one HCl Salt]
solubility [4, 9]: 330 µg/mL

CC(=O)[C@H]1CC[C@H]2[C@@H]3CCC4=C/C(=N/OC(=O)[C@@H](N)C(C)C)CC[C@]4(C)[C@H]3CC[C@]12C [Compound P1-185, 3-Valine-E-oxime-progesterone HCl]
efficacy in the cerebral edema assay (edema reduction) relative to PROG or group [3]: equivalent efficacy to progesterone | reduction in cell death at 5 μM [1]: 27% | reduction in cell death best concentration [1]: 27% | cell survival / reduction in cell death (in words) [1]: highest levels of cell survival among the compounds screened | best concentration (for reduction in cell death) [1]: 5 µM | solubility [4, 9]: 13000 µg/mL

CC(=O)[C@H]1CC[C@H]2[C@@H]3CCC4=C/C(=N\OC(=O)[C@@H](N)C(C)C)CC[C@]4(C)[C@H]3CC[C@]12C [Compound P1-186, 3-Valine-Z-oxime-progesterone HCl]
in vivo stability of amino acid side chain / conversion to parent compound [2]: readily cleaved to give primarily the parent oxime P2-02 | efficacy in the cerebral edema assay (edema reduction) relative to PROG or group [3]: average reduction in edema levels almost twice that of PROG | reduction in cell death at 5 μM [1]: 34% | reduction in cell death best concentration [1]: 34% | cell survival / reduction in cell death (in words) [1]: highest levels of cell survival among the compounds screened | best concentration (for reduction in cell death) [1]: 5 µM | solubility ([4]; phosphate buffered saline, room temperature, visible endpoint of saturation): 15200 µg/mL

CC(=O)[C@H]1CCC2C3CCC4=CC(=O)CC[C@]4(C)C3CC[C@@]21C (some centres unmarked) [PROG, progesterone, reference compound]
maximum serum concentration [5]: 28 ng/mL | mean % difference edema (injured vs non-injured tissue) [3]: 2.0% | edema compared to subjects treated with vehicle [3]: decrease in edema | reduction of mortality ([6]; 100 moderate to severe TBI patients, 3 days intravenous treatment): over 60% | functional outcomes ([6]; 30 days post-injury): significantly improved functional outcomes | reduction in cell death at 5 μM [1]: 4% | reduction in cell death best concentration [1]: 42% | best concentration (for reduction in cell death) [1]: 20 µM

CC(=O)[C@@H]1CCC2C3CCC4=CC(=O)CC[C@@]4(C)C3CC[C@]21C (stereo partly drawn) [ent-PROG, ent-Progesterone]
glutathione reductase activity [7]: significantly increased glutathione reductase activity | activation of PR-mediated gene transcription [8]: does not activate
